One test concerns human Type II GHSR. Description: Aequorin bioluminescence assay in Xenopus oocytes, human Type II GHSR. It is filed as cell-based. The note with it: human Type II-derived cRNA truncated in TM-6. The protocol: (§1) Xenopus laevis oocytes were isolated and injected using standard methods previously described by Arena, et. al. 1991, Mol. Pharmacol. 40, 368-374, which is hereby incorporated by reference. Adult female Xenopus Laevis frogs (purchased from Xenopus One, Ann Arbor, Mich.) were anesthetized with 0.17% tricaine methanesulfonate and the ovaries were surgically removed and placed in a 60 mm culture dish (Falcon) containing OR-2 medium without calcium (82.5 mM NaCl, 2 mM KCl, 2.5 mM sodium pyruvate, 1 mM MgCl2, 100 μ/ml penicillin, 1 mg/ml streptomycin, 5 mM HEPES, pH=7.5; ND-96 from Specialty Media, NJ). Ovarian lobes were broken open, rinsed several times, and oocytes were released from their sacs by collagenase A digestion (Boehringer-Mannheim; 0.2% for 2-3 hours at 18° C.) in calcium-free OR-2. […]
(§2) The ABA requires injection of library pool cRNA (25 ng/egg for pool sizes of 500 to 10,000) with aequorin cRNA (2 ng/egg) supplemented with the G-protein alpha subunit Gα11 (2 ng/egg). […] Polymerase chain reaction (PCR) was utilized to generate a DNA fragment corresponding to the open reading frame (ORF) of the aequorin cDNA with an optimized Kosak translational initiation sequence (Inouye, S. et. al., 1985, Proc. Natl. Acad. Sci. USA 82:3154-3158). […]

For the next test, the system named is swine Type I GHSR. Kind of test: Aequorin bioluminescence assay in Xenopus oocytes, swine Type I GHSR. It is filed as cell-based. The note with it: swine Type I cRNA in oocytes; tested from 1 μM down. The protocol: as §1, §2

We go through one compound from patent US6242199A, “Assays for growth hormone secretagogue receptors” (Merck & Co., Inc., priority 1998, dated 2001).

Take `CC(C)(N)C(=O)N[C@H](COCc1ccccc1)C(=O)N1CCC2(CC1)CN(S(C)(=O)=O)c1ccccc12` [Compound A, (N-[1(R)-[1,2-dihydro-1-methanesulfonlylspiro[3H-indole-3,4'-piperidin]-1'-yl)carbonyl]-2-(phenylmethyloxy)-ethyl]-2-amino-2-methyl-propanamide]: in the test on human Type II GHSR, the “response (in words)” value is listed as “failed to give a response”. Besides, the “lowest Compound A concentration giving a response” value in the test with swine Type I GHSR stood at 0.1 nM.
